What all share (format): cell-based, human
One experiment concerns TGFβ2 protein. Put plainly: Immunohistochemistry of cryo-sectioned HFOCs: TGFβ2. The source says:
(§1) Hair growth percentages is normalized to day 0.
(§2) FIG. 4. Galunisertib inhibits TGFβ2 paracrine signaling in the bulb epithelial compartment. a) Representative Immunohistochemistry (IHC) images of tissue sections of HFOCs untreated and treated with Galunisertib as indicated and stained for TGFβ2 and p-SMAD2. In the upper left frame is exemplified how the dermal papilla (DP) and adjacent bulb epithelial compartment (HB) regions were delineated for quantitative analyses shown in b-e. Nuclei were counterstained with DAPI. Scale bar, 100 μm. b-e) Adjusted intensity levels of TGFβ2 and p-SMAD2 per DP and HB areas as measured in tissue sections from untreated and Galunisertib-treated HFOCs. Values are mean±SD of HFOCs established from n=4 donors (n>9 HFs per condition). ns p≥0.05, *p≤0.05 by unpaired t-test.
(§3) For immunohistochemistry, 2-day HFOCs are used for immunohistochemistry analysis. Briefly, HFs were embedded on a drop of OCT and stored at −80° C. 8 μm cryosections are air-dried and fixed in 4% PFA (for TGFβ2, cleavage Caspase 3, p-SMAD2 and KI67 immunostainings) or cold acetone (for LEF1 and β-catenin immunostaining). Following 2×5 min rinse with PBS, microsections are permeabilized 2× for 10 min with PBS+0.3% Triton X 100 (PBS-T) and then blocked with PBS+10% fetal bovine serum (FBS) for 1 hour at room temperature. […]

For experiment [1], the system named is phosphorylated SMAD2 (p-SMAD2). Put plainly: Western blot of phospho-SMAD2 in hair bulbs of HFOCs. As to conditions: HFOCs treated with DHT or DHT+galunisertib for 72 h. The procedure:
For western blot, hair bulbs are dissected from HFOCs treated with DMSO, DHT and Galunisertib for 72 h. Upon rinse in PBS, hair bulbs are lysed in Laemmli buffer (without bromophenol blue) with Halt Protease Inhibitor Cocktail and Halt Phosphatase Inhibitor Cocktail, and lysates are sonicated. Lysates from 10 hair bulbs are used for each condition tested. Total extracts are then loaded in SDS-polyacrylamide gels and transferred onto nitrocellulose membranes for western blot analysis. Membranes are blocked during 1 h with TBS+5% BSA. Primary and secondary antibodies are diluted in TBS+2% BSA accordingly to Supplementary Table 1. Signal is detected using Clarity Western ECL Substrate reagent. A GS-800 calibrated densitometer with Quantity One 1-D Analysis Software 4.6 (Bio-Rad Laboratories) is used for quantitative analysis of protein levels.
In addition, only anagen hair follicles are used.
as §1

A further experiment relates to p-SMAD2. The experiment in a line: Immunohistochemistry of cryo-sectioned HFOCs: p-SMAD2.
Description: as §1, §2, §3

Setting [2] is: bulb epithelial compartment surrounding the DP, Galunisertib 48 h vs untreated.
The mark [3] stands for this setting: dermal papilla, HFOCs with or without Galunisertib for 48 h.

With `Cc1cccc(-c2nn3c(c2-c2ccnc4ccc(C(N)=O)cc24)CCC3)n1` [Galunisertib], the “TGFβ2 fluorescence intensity levels at the bulb epithelial compartment” value in the experiment with TGFβ2 protein (setting [2]) was “decreased levels”. Also, the “DP levels of TGFβ2 (fluorescence intensity)” value in the experiment on TGFβ2 protein (setting [3]) is “isn't any significant change”. The “canonical TGFβ signaling activation (phospho-SMAD2 protein levels)” value in experiment [1] is “blocks TGFβ activation”. In the experiment with p-SMAD2 (setting [2]), the “p-SMAD2 fluorescence intensity levels at the bulb epithelial compartment” value is given as “decreased levels”. Also, in the experiment on p-SMAD2 (setting [3]), the “p-SMAD2 in DP (fluorescence intensity)” value is “not significantly reduced”.

The values are drawn from patent US20260256771A1, “GALUNISERTIB FOR USE IN THE TREATMENT OF ANDROGENIC ALOPECIA” (SAÚDE VIÁVEL, S.A., priority 2022, published 2026).
